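Results reflect a 48-hour exposure of cells in 96-well plates to compound at five concentrations. The concentration for 50% growth inhibition is given as GI50. TGI denotes the concentration required for complete inhibition of growth.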

Some test systems named below: DMS 114 small cell lung; LXFL 529 NSCLC; XF 498 CNS; DMS 273 small cell lung; M19-MEL melanoma; KM20L2 colon; HOP-18 NSCLC; MDA-N.
Common to all, as to assay: NCI anticancer screen, dose series, 48 h

With `COC(=O)c1c(O)ccc(O)c1C(C(C)=O)C(C)=O`, the TGI in the assay with DMS 114 small cell lung, in the assay on LXFL 529 NSCLC, with XF 498 CNS, in the assay on DMS 273 small cell lung and in the assay on M19-MEL melanoma was more than 100 µM in each case.
Turning to `COc1cccc2c1C(=O)c1c(O)c3c(c(O)c1C2=O)C[C@@](O)(C(=O)CO)CC3OC1CC(N)C(OC2CCCCO2)C(C)O1` (stereo partly specified), the TGI in the assay on KM20L2 colon was 4.98 µM; with HOP-18 NSCLC, 1.06 µM; in the assay on MDA-N, 0.362 µM; in the assay on LXFL 529 NSCLC, 3.14 µM; in the assay on XF 498 CNS, 1.47 µM; in the assay on DMS 273 small cell lung it was 7.18 µM.
`O=C(O)c1ccc2c(c1)C(=O)N(c1ccc(S(=O)(=O)c3ccc(N4C(=O)c5ccc(C(=O)O)cc5C4=O)cc3)cc1)C2=O`: the TGI in the assay with DMS 114 small cell lung, with KM20L2 colon, in the assay on LXFL 529 NSCLC, in the assay on XF 498 CNS, in the assay on DMS 273 small cell lung and in the assay with M19-MEL melanoma was more than 100 µM in each case.
`CC1(C)C(N2CCOCC2)CS1(=O)=O` (stereo unspecified) yielded a TGI with MDA-N of more than 10 µM.
Consider `C[P+]1(Cc2ccccc2)CCCC1`, for which the TGI in the assay on DMS 114 small cell lung, in the assay on KM20L2 colon, in the assay with HOP-18 NSCLC, with LXFL 529 NSCLC, in the assay on DMS 273 small cell lung and with M19-MEL melanoma was more than 100 µM throughout.
`CC(=Nc1ccc(N(C)C)cc1)c1ccccc1` came in with a TGI in the assay on MDA-N of 52.2 µM.
The same measure, in the same setting: next, `Cc1ccc(N(C=O)c2c([N+](=O)[O-])cc([N+](=O)[O-])c3c2=[N+]([O-])CN=3)cc1`: more than 100 µM; `O=C(O)CCC(c1ccccc1)(c1ccccc1)c1ccccc1`: more than 100 µM.
Take `CCOC(=O)C1=C(C)NC(=O)NC1c1ccc(OC)cc1OC` (stereo unspecified): the TGI with DMS 114 small cell lung, with KM20L2 colon, in the assay on HOP-18 NSCLC, in the assay on LXFL 529 NSCLC, with XF 498 CNS and in the assay with DMS 273 small cell lung was more than 100 µM each time. Besides, the TGI with M19-MEL melanoma is more than 100 µM.
`COc1cc(OCc2ccccc2)c2c(CCC(=O)O)cc(=O)oc2c1` (tested in a mixture with another compound) showed a TGI in the assay on MDA-N of more than 100 µM.
Regarding `CC1(C)C(=O)OC(n2cc(F)c(=O)[nH]c2=O)C1=O` (stereo unspecified), the TGI with DMS 114 small cell lung, in the assay with KM20L2 colon, in the assay with HOP-18 NSCLC, in the assay on LXFL 529 NSCLC, with XF 498 CNS and in the assay on M19-MEL melanoma was more than 100 µM each time.
Compound `NS(=O)(=O)c1ccc(N=Nc2ccc[nH]c2=O)cc1` came in with a TGI in the assay on MDA-N of more than 100 µM.
In the case of `CC(=O)[CH-]C(=O)c1ccccc1.CC(=O)[CH-]C(=O)c1ccccc1.Cl.[O-]c1ccnc2ccccc12.[O-]c1ccnc2ccccc12.[Ti+4]`, the GI50 in the assay on KM20L2 colon, in the assay with HOP-18 NSCLC and in the assay with LXFL 529 NSCLC was more than 100 µM in each case. Further, the TGI in the assay with KM20L2 colon, in the assay with HOP-18 NSCLC and in the assay with LXFL 529 NSCLC was more than 100 µM in each case.
In the case of `Cc1ccc(S(=O)(=O)OCOS(=O)(=O)c2ccc(C)cc2)cc1`, the TGI in the assay on DMS 114 small cell lung, in the assay with KM20L2 colon, in the assay with HOP-18 NSCLC, with LXFL 529 NSCLC, in the assay on DMS 273 small cell lung and in the assay on M19-MEL melanoma was more than 100 µM throughout.
As for `CCOC(=O)C1=C(OC(OCC)C([Se]c2ccccc2)C(C)C)CCC1` (stereo unspecified), the TGI with KM20L2 colon is 63.3 µM; in the assay with HOP-18 NSCLC, 41.3 µM; in the assay on LXFL 529 NSCLC, 29.5 µM; with XF 498 CNS it was 26.4 µM; with DMS 273 small cell lung, 20 µM; in the assay with M19-MEL melanoma it was 34.9 µM.
In the case of `CCOC(=O)c1cc(=O)n(C)c(=O)n1C`, the TGI in the assay with KM20L2 colon, with HOP-18 NSCLC, in the assay with LXFL 529 NSCLC, with XF 498 CNS, in the assay on DMS 273 small cell lung and in the assay with M19-MEL melanoma was more than 100 µM each time.
For `Cc1ccc2c(c1)-c1c3c(nn1C)-c1ccccc1SC3O2` (stereo unspecified), the TGI in the assay on DMS 114 small cell lung is more than 100 µM; with KM20L2 colon, more than 100 µM; in the assay on HOP-18 NSCLC, more than 100 µM; in the assay with LXFL 529 NSCLC, more than 100 µM; with XF 498 CNS, 88.5 µM; with DMS 273 small cell lung it was more than 100 µM. The compound further returned a TGI in the assay with M19-MEL melanoma of more than 100 µM.
Consider `C=C1C(=O)O[C@H](c2ccoc2)C[C@@H]1[C@@]1(C)CCCC2(C)C(=O)OCC21` (stereo partly specified), for which the TGI with DMS 114 small cell lung, with KM20L2 colon, in the assay on LXFL 529 NSCLC, with XF 498 CNS, in the assay on DMS 273 small cell lung and in the assay on M19-MEL melanoma was more than 100 µM throughout.
For `CC(C)(C)[Si](C)(C)OCC1OC(n2cnc3c(=O)[nH]cnc32)CC1O` (stereo unspecified), in the assay on MDA-N, the TGI was more than 100 µM.
`C[C@]12CC[C@H](O[C@@H]3O[C@H](CO[C@@H]4O[C@H](CO)[C@@H](O)[C@H](O)[C@H]4O)[C@@H](O)[C@H](O)[C@H]3O)C[C@@H]1CC[C@@H]1[C@@H]2CC[C@]2(C)[C@@H](C3=CC(=O)OC3)CC[C@]12O` registered a TGI with MDA-N of 93.5 µM.

(Values after PubChem BioAssay (NCI).)
